This note sets out measurements from PMC10714399, “Open Source Antibiotics: Simple Diarylimidazoles Are Potent against Methicillin-Resistant Staphylococcus aureus” (ACS Infectious Diseases, 2023).

SMILES strings stand for the structures. Converted amounts (≈) assume the structure as drawn. Where two headings read alike, the source gives them in different places.

The test system of test [1] is Staphylococcus aureus NCTC 13373 (mecA-positive; methicillin-resistant). The experiment in a line: In vitro antibacterial activity, MIC (UCL School of Pharmacy assay), MRSA. The format is cell-based. Conditions: for MIC: Staphylococcus aureus. As to the method:
(§1) Staphylococcus aureus NCTC 13373 (mecA-positive; methicillin-resistant, NCTC 13373) was supplied by the National Collection of Type Cultures (NCTC), Public Health England, United Kingdom. Other organisms, S. aureus ATCC 25923 (methicillin-susceptible) and Enterococcus faecalis ATCC 51299 (vanA-positive; vancomycin-resistant), were obtained from the American Type Culture Collection (ATCC) via LGC Standards, UK. A suspension of each organism was prepared from an overnight plate culture (tryptone soya agar) in phosphate-buffered saline (PBS) and adjusted to an absorbance reading at 600 nm of 0.1, which is approximately equivalent to 1 × 10^8 colony-forming units (CFU) per mL. The cultures were further diluted 1:100 in isosensitest broth (Oxoid, United Kingdom) before 100 μL was used to inoculate each well of a 96-well plate that contained diluted samples of the OSA series. Compounds were evaluated over a 2-fold dilution range from 32 to 0.03 μg/mL. Stocks of the samples were prepared in 100% DMSO at […] before being diluted in isosenstitest broth. The highest concentration of DMSO present was 2%, which has been previously shown not to inhibit the growth of the microorganisms (data not shown). […] Vancomycin was used as a quality control compound.

Test [2] relates to Enterococcus faecalis ATCC 51299 (vanA-positive; vancomycin-resistant). In words: In vitro antibacterial activity, MIC (UCL), VRE. The format is cell-based. Conditions: read-out: VRE MIC (UCL). As to the method: as §1
The subject of test [3] is S. aureus ATCC 25923 (methicillin-susceptible). In words: In vitro antibacterial activity, MIC (UCL), MSSA. The class given is cell-based, Staphylococcus aureus. To be noted: for MIC: Staphylococcus aureus, read-out: MSSA MIC. As to the method:
as §1

One may read the MIC as the lowest concentration that inhibits growth of the organism. Regarding `COc1ccn2c(Nc3ccc(F)cn3)c(-c3ccccn3)nc2c1` [OSA_000839], the MIC in test [1] (UCL, read-out: MRSA MIC (UCL)) was 16 µg/mL (≈ 47.7 µM); in test [2], above 32 µg/mL.
On to `Cc1ccn2c(NC3CCCC3)c(-c3ccc(N(C)C)cc3)nc2c1` [OSA_000840], for which the MIC is above 32 µg/mL in test [1] (UCL, read-out: MRSA MIC (UCL)) and above 32 µg/mL in test [2].
On to `Cc1ccc2nc(-c3ccccn3)c(Nc3ccc4c(c3)OCCO4)n2c1` [OSA_000841], for which the minimum inhibitory concentration (MIC) in test [1] (UCL, read-out: MRSA MIC (UCL)) is 8 µg/mL (≈ 22.3 µM); in test [2], 16 µg/mL (≈ 44.6 µM).
The matching figures for `COc1ccn2c(Nc3cccc(F)c3)c(-c3cscn3)nc2c1` [OSA_000843]: above 32 µg/mL and above 32 µg/mL.
In the case of `CN(C)Cc1ccc2nc(-c3ccccn3)c(Nc3cccc(F)c3)n2c1` [OSA_000844], the MIC in test [1] (UCL, read-out: MRSA MIC (UCL)) was above 32 µg/mL; in test [2] it was above 32 µg/mL.
As for `c1ccn2c(NC3CCCC3)c(-c3nccs3)nc2c1` [OSA_000845], the minimal inhibitory concentration (MIC) was above 32 µg/mL in test [1] (UCL, read-out: MRSA MIC (UCL)) and above 32 µg/mL in test [2].
For the molecule `Cc1ccn2c(Nc3ccc(F)cc3)c(-c3ccc(N(C)C)cc3)nc2c1` [OSA_000846], the minimal inhibitory concentration (MIC) is above 32 µg/mL in test [1] (UCL, read-out: MRSA MIC (UCL)) and above 32 µg/mL in test [2].
`Cn1ccnc1-c1nc2ccccn2c1Nc1ccc(F)cc1` [OSA_000847]: the MIC in test [1] (UCL, read-out: MRSA MIC (UCL)) is above 32 µg/mL; in test [2], above 32 µg/mL.
Take `COc1ccn2c(Nc3cccc(F)c3)c(-c3cn(C)cn3)nc2c1` [OSA_000848]: the minimal inhibitory concentration (MIC) was above 32 µg/mL in test [1] (UCL, read-out: MRSA MIC (UCL)) and above 32 µg/mL in test [2].
As for `COc1ccc(-c2nc3ccc(C)cn3c2NCc2ccco2)cc1OC` [OSA_000849], the minimum inhibitory concentration (MIC) in test [1] (UCL, read-out: MRSA MIC (UCL)) is above 32 µg/mL; in test [2] it was above 32 µg/mL.
In the case of `c1ccc(-c2nc3ccccn3c2N2CCOCC2)nc1` [OSA_000850], the MIC was above 32 µg/mL in test [1] (UCL, read-out: MRSA MIC (UCL)) and above 32 µg/mL in test [2].
With `COCc1ccc2nc(-c3ccccn3)c(Nc3cccc(F)c3)n2c1` [OSA_000852], the MIC in test [1] (UCL, read-out: MRSA MIC (UCL)) is above 32 µg/mL; in test [2], above 32 µg/mL.
With `[2H]C([2H])([2H])N(c1ccc(F)cc1)c1c(-c2ccccn2)nc2ccccn12` [compound 1002], the MIC in test [1] (read-out: MRSA MIC) and in test [3] was 16 µg/mL (≈ 49.8 µM) throughout.
With `CN(c1ccc(F)cc1)c1c(-c2ccccn2)nc2ccc(Br)cn12` [compound 1003], the MIC in test [1] (read-out: MRSA MIC) and in test [3] was 16 µg/mL (≈ 40.3 µM) each time.
As to `CSc1ccc2nc(-c3ccccn3)c(N(C)c3ccc(F)cc3)n2c1` [compound 1004], the MIC in test [1] (read-out: MRSA MIC) and in test [3] was 8 µg/mL (≈ 22 µM) throughout.
In the case of `CN(c1ccc(F)cc1)c1c(-c2ccccn2)nc2cccc(F)n12` [compound 1005], the MIC in test [1] (read-out: MRSA MIC) and in test [3] was 32 µg/mL (≈ 95.1 µM) throughout.
Consider `CN(c1ccc(F)cc1)c1c(-c2ccccn2)nc2c(F)cccn12` [compound 1006], for which the MIC in test [1] (16 h, read-out: MRSA MIC) was above 32 µg/mL; in test [3] (16 h) it was above 32 µg/mL.
Regarding `COc1ccnc(-c2nc3ccccn3c2N(C)c2ccc(F)cc2)c1` [compound 1007], in test [1], the “MRSA MIC” value worked out at 8 µg/mL. For the same molecule, the “MSSA MIC” value in test [3] was 8 µg/mL.
For `Fc1ccc(Nc2c(-c3nccs3)nc3ccccn23)cc1` [compound 1008], the minimal inhibitory concentration (MIC) in test [1] (read-out: MRSA MIC) and in test [3] was above 32 µg/mL throughout.
Consider `Fc1ccc(Nc2c(-c3ccc[nH]3)nc3ccccn23)cc1` [compound 1009], for which the MIC in test [1] (read-out: MRSA MIC) and in test [3] was above 32 µg/mL each time.
Consider `CC(C)CN(c1ccc(F)cc1)c1c(-c2nccs2)nc2ccccn12` [compound 1010], for which the “MRSA MIC” value in test [1] is recorded as above 32 µg/mL. Moreover, in test [3], the “MSSA MIC” value is given as above 32 µg/mL.
Take `CCN(CC)c1ccc(-c2c(-c3ccccn3)nc3ccccn23)cc1` [compound 1011]: the MIC in test [1] (read-out: MRSA MIC) and in test [3] was 4 µg/mL (≈ 11.7 µM) in each case.
In the case of `CN1CCN(c2ccc(-c3c(-c4ccccn4)nc4ccccn34)cc2)CC1` [compound 1012], the MIC in test [1] (read-out: MRSA MIC) and in test [3] was above 32 µg/mL throughout.
For the molecule `Cc1ccc(-c2c(-c3ccccn3)nc3cc(C#N)ccn23)cc1` [compound 1013], the “MRSA MIC” value in test [1] is recorded as above 32 µg/mL. For the same molecule, the “MSSA MIC” value in test [3] is above 32 µg/mL.
Turning to `Cc1ccc(-c2c(-c3ccccn3)nc3cc(N4CCNCC4)ccn23)cc1` [compound 1014], the “MRSA MIC” value in test [1] is given as above 32 µg/mL. Also, the “MSSA MIC” value in test [3] is recorded as above 32 µg/mL.
Take `Cc1ccc(-c2c(-c3ccccn3)nc3cc(C(N)=O)ccn23)cc1` [compound 1015]: in test [1], the “MRSA MIC” value was above 32 µg/mL. Also, in test [3], the “MSSA MIC” value is reported as above 32 µg/mL.
On to `N#Cc1ccc(C(=O)Nc2c(-c3ccccn3)nc3ccccn23)cc1` [compound 1016], for which the MIC in test [1] (read-out: MRSA MIC) and in test [3] was above 32 µg/mL in each case.
Consider `Cc1ccc(C(=O)Nc2c(-c3ccccn3)nc3ccccn23)cc1` [compound 1017], for which the MIC in test [1] (read-out: MRSA MIC) and in test [3] was above 32 µg/mL throughout.
As to `COc1ccc(-c2nc3ccccn3c2Nc2ccc(F)cc2)nc1` [compound 1022], the MIC in test [1] (read-out: MRSA MIC) and in test [3] was 8 µg/mL (≈ 23.9 µM) each time.
`CC(C)CN(c1ccc(F)cc1)c1c(-c2ccccn2)nc2cc(F)ccn12` [compound 1023]: the “MRSA MIC” value in test [1] is given as 8 µg/mL. Also, the “MSSA MIC” value in test [3] worked out at 4 µg/mL.
The corresponding values for `CC(C)CN(c1ccc(F)cc1)c1c(-c2ccccn2)nc2ccc(F)cn12` [compound 1024] are 8 µg/mL and 8 µg/mL.
As to `COc1cccc(-c2nc3ccccn3c2N(CC(C)C)c2ccc(F)cc2)n1` [compound 1025], in test [1], the “MRSA MIC” value was above 32 µg/mL. Also, the “MSSA MIC” value in test [3] is listed as above 32 µg/mL.
`CC(C)CN(c1ccc(F)cc1)c1c(-c2ccccn2)nc2cnccn12` [compound 1035]: the minimal inhibitory concentration (MIC) in test [1] (read-out: MRSA MIC) and in test [3] was above 32 µg/mL each time.
On to `CC(C)CN(c1ccc(F)cc1)c1c(-c2ccccn2)nc2cccnn12` [compound 1036], for which the MIC in test [1] (read-out: MRSA MIC) and in test [3] was 32 µg/mL (≈ 88.5 µM) in each case.
In the case of `CC(C)CN(c1ccc(F)cc1)c1c(-c2ccccn2)nc2ccc(S(C)(=O)=O)cn12` [compound 1037], in test [1], the “MRSA MIC” value is listed as above 32 µg/mL. Also, the “MSSA MIC” value in test [3] is above 32 µg/mL.
Take `CC(C)CN(c1ccc(F)cc1)c1c(-c2ccccn2)nc2ncccn12` [compound 1038]: the MIC was found to be 6 µg/mL (≈ 16.6 µM) in test [1] (read-out: MRSA MIC) and 8 µg/mL (≈ 22.1 µM) in test [3].
The corresponding values for `CC(C)CN(c1ccc(F)cc1)c1c(-c2ccccn2)nc2ccncn12` [compound 1039] are above 32 µg/mL and above 32 µg/mL.
The corresponding values for `CC(C)CN(Cc1c(-c2ccccn2)nc2ccccn12)c1ccc(F)cc1` [compound 1040] are 32 µg/mL (≈ 85.5 µM) and above 32 µg/mL.
Consider `N#Cc1ccc(-c2nc(-c3ccccn3)c[nH]2)cc1` [compound 1102], for which the “MRSA MIC” value in test [1] was above 32 µg/mL. The “MSSA MIC” value in test [3] is above 32 µg/mL.
As to `N#Cc1ccc(-c2c(-c3ccccn3)nc3cccnn23)cc1` [compound 1103], the “MRSA MIC” value in test [1] is above 32 µg/mL. The “MSSA MIC” value in test [3] is on record as above 32 µg/mL.
As to `N#Cc1ccc(-c2c(-c3ccccn3)nc3ccccn23)cc1` [compound 1104], the “MRSA MIC” value in test [1] was above 32 µg/mL. Besides, the “MSSA MIC” value in test [3] is recorded as above 32 µg/mL.
`N#Cc1ccc(-c2c(-c3ccccn3)nc3ncccn23)cc1` [compound 1105]: the “MRSA MIC” value in test [1] is above 32 µg/mL. The “MSSA MIC” value in test [3] is given as above 32 µg/mL.
Take `N#Cc1ccc(-c2c(-c3ccccn3)nc3cnccn23)cc1` [compound 1106]: the “MRSA MIC” value in test [1] is above 32 µg/mL. Besides, the “MSSA MIC” value in test [3] was above 32 µg/mL.
Turning to `N#Cc1ccc(-c2c(-c3ncccn3)nc3ccccn23)cc1` [compound 1107], the “MRSA MIC” value in test [1] is given as above 32 µg/mL. The “MSSA MIC” value in test [3] is on record as above 32 µg/mL.
